Laboratory results from US9457106B2, “Cancer therapy” (priority 2011, dated 2016).
Like-named read-outs stand apart in the source and are kept apart here.

Key:
[1] = cited from earlier work; for Maximum particle energy: beta particles
[2] = for Formation of a precipitate: 1 mL calcium chloride solution (50 mM) added to 10 mL of 100 mM phosphate solution

Compound	Half-life ([1]; beta emitters)	Maximum particle energy [1]	also measured
[125IH] [iodine-125]			Half-life ([1]; electron capture emitters): 60 days; Particle energy ([1]; electron capture emitters): 0.035 MeV
O=P([O-])([O-])O.[Na+].[Na+] [disodium hydrogen phosphate]			Formation of a precipitate [2]: heavy visible precipitate
[90Y] [yttrium-90]	2.68 days	2.27 MeV	
O=P([O-])(O)O.[Na+] [sodium dihydrogen phosphate]			Formation of a precipitate [2]: no precipitate was formed; Amount of precipitate formed as a function of sodium hydroxide (0.05 M) added ([2]; 50 mL sodium dihydrogen phosphate (100 mM) and 5 mL calcium chloride (50 mM)): a precipitate of calcium phosphate begins to form
[153Sm] [samarium-153]	1.96 days	0.7 (>50%) MeV	
[131IH] [iodine-131]	8.04 days	0.61 MeV	
[89Sr] [strontium-89]	51 days	1.46 MeV	
[103Ru] [ruthenium-103]	40 days	0.214 MeV	
[103Pd] [palladium-103]			Half-life ([1]; electron capture emitters): 17 days; Particle energy ([1]; electron capture emitters): 0.05 MeV
phosphorus-32	approximately 14 days	1.71 MeV	
